Data published in patent US8541607B2, “Disulfide, sulfide, sulfoxide, and sulfone derivatives of cyclic sugars and uses thereof” (Lacer, S.A., priority 2003, dated 2013).

Tests used:
[1] = system: U937 monocyte adhesion to activated HMEC-1 human endothelial cells; assay: Inhibition of U937 monocyte adhesion to TNF-α activated HMEC-1; type: cell-based; details: HMEC-1 activated by TNF-α (50 ng/ml); mean ± s.e.m.
From the text: The methods used in the assays to determine the effect of the compounds on platelet and monocyte adhesion to human endothelial cells are substantially the same as described in the following references: • Del Maschio A. et al., J Cell Biol 1996; 135: 497-510 • Bombeli T. et al., Blood 1999; 93: 3831-3838 • Colomé C. et al; Atherosclerosis 2000; 149: 295-302; and • Martin-Satue M. at al; British Journal of Cancer 1999; 80; 1169-1174
The adhesion of the U937-monocyte cells to confluent human microvasculature endothelial cells (HMEC-1) activated by means of TNF-α (50 ng/ml) and the platelets to human umbilical endothelial cells (HUVEC) were the methods used to determine the inhibitory effect of compounds on cellular adhesion. The adhesion of monocytes previously labeled with calcein-2M (Molecular Probes) to HMEC-1 activated by TNF-α, was assessed by determination of the associated-cell fluorescence. The adhesion of washed human platelets previously labeled with MoAb against CD36-FITC to activated-HUVEC (50 μg/ml of LDL minimally modified, LDLmm) was determined by Laser Scanning Cytometry (LSC, Olympus) determining the associated-cell fluorescence. Results are expressed as the percentage of inhibition respect to control (adhesion of the cells in the absence of compounds).

arterial rings = assay: Test of vasorelaxation on arterial rings contracted with phenylephrine; type: cell-based; details: artery ring contracted with 1 μM Phenylephrine; mean ± s.d.; read-out: EC50 (vasodilatation equal to 50% of the maximum tone)
Procedure: The method used in the assays is substantially the same as described in following references: • * Furchgot, R. F., “Methods in nitric oxide research”; Feelisch & Stamler, eds., John Wiley & Sons, Chichester, England, pp 567-581. • * Trongvanbichnam K., et al., Jpn. J. Pharmacol. 71 (1996); 167-173. • * Sales, E., at al., Eur. J. Pharmacol. 258 (1994); 47-55.
The different compounds are tested at 5 different concentrations, at a concentration range from 0.0001 to 10 mM, using from 6 to 9 arterial rings for each compound. The obtained results are compared to those from the isosorbide 5-mononitrate, which is used as reference product.
The results are shown in table 1 below and are provided as EC50 (effective concentration 50), which is the concentration of each of the tested, compounds yielding a vasodilatation equal to 50% of the maximum tone at which the artery ring has been contracted with 1 μM of Phenylephrine.

[2] = system: platelets (Human Platelet Rich Plasma); assay: In vitro inhibition of ADP-induced platelet aggregation; type: cell-based; details: submaximal ADP (1-4 μM), mean ± s.d.
Procedure: The method used in the assays is substantially the same as described in following reference: • * Sales, E., at al., Br. J. Pharmacol. 112 (1994); 1071-1076.
The compounds are tested at four different concentrations, using platelet rich plasma from not less than 6 different healthy human donors. The results obtained are compared to those from 5-isosorbide mononitrate, which is used as reference product.
The results are shown in table 2 and are expressed as IC50 (inhibitory concentration 50), which is the concentration of each of the tested compounds yielding an inhibition equal to 50% of the aggregation obtained with a submaximal concentration (1-4 μM) of ADP (a submaximal concentration of ADP is the minimal amount of ADP which produces the maximal aggregation).

[3] = system: heart (AVP-induced coronary vasoconstriction); assay: In vivo protection against ischemia-reperfusion damage in the heart (arginine-vasopressin induced S-wave depression); details: p.o.; for S-wave decrement: 1 h before AVP 0.3 U/kg, vehicle 46.2 ± 4.9
Procedure: Experiments were performed according to the model previously described by Hirata Y at al (Journal of Cardiovascular Pharmacology, 1998, 31: 322-326)
After a food fasting period of 6 hours, animals were divided into groups of at least 8 animals each. Doses of products were given by oral sounding 1 h before the ischemia induction. Animals were anaesthetized with pentobarbital (40 mg/kg, i.p.) and the standard limb lead II electrocardiogram was recorded to detect the S-wave depression. 0.3 U/kg arginine-vasopressin (AVP) (Sigma Chemicals, St Louis, Mo., USA) was injected into the carotid artery to induce vasoconstriction of small coronary arteries and increase in coronary resistance. In all the groups received AVP 60 min after, the test drug. In all groups, after AVP injection of 10 minutes ECG recording was performed.
The results are shown in table 16 and are expressed as S-wave decrements (μvolts).

[4] = system: apo E-deficient mouse (OLA129X C57/BL6J); assay: Atherogenesis in apo E-deficient mouse on standard diet; type: in vivo; details: 5 mg/Kg/day, 12 weeks
From the text: Preventing and curative effect on atherogenesis of the compounds it is investigated in apo E-deficient mouse fed on standard diet model. Male and female apo E-deficient mouse (OLA129X C57/BL6J) of three months old were fed on standard diet. The control group included 8 males and 7 females mouse, while the treated group consist of 8 males and 7 females mouse. All the animals had similar cholesterol and body weight at the beginning of the experiment. Both the control and the treated groups were studied for 12 weeks. The treated group received 5 mg/Kg/day of the compound (12).
Plasma lipid parameters (total cholesterol, HDL cholesterol and triglycerides) and oxidative stress (measured as 8-iso-prostaglandin F2α levels) were measured at predetermined intervals. After completion of the administration period, the thoracic aorta was isolated and stained to determine the area of the atherosclerotic injuries deposited in the internal wall of the blood vessel in according with the Red Oil method (Lillie, R. D., 1994, Stain Technology, vol. 19, pp 55).

Compound | % of inhibition to control, U937 monocyte adhesion [1] | EC50 (arterial rings) | IC50 [2] | Protection of S-wave decrement ([3]; 20 mg/kg) | S-wave decrement ([3]; 20 mg/kg) | Protection of S-wave decrement ([3]; 100 mg/kg) | S-wave decrement ([3]; 100 mg/kg) | levels of triglycerides in plasma (in words) [4] | oxidative stress (in words) [4] | HDL-cholesterol, Female ([4]; female, control 0.4 ± 0.1, mean ± s.d.) | Triglycerides, Female ([4]; female, control 1.9 ± 0.6, mean ± s.d.) | Total cholesterol, Female ([4]; female, control 9.5 ± 2, mean ± s.d.) | 8-iso-prostaglandin F2α, Female ([4]; female, oxidative stress, control 182 ± 19, mean ± s.d.) | HDL-cholesterol, Male ([4]; male, control 0.5 ± 0.15, mean ± s.d.) | Triglycerides, Male ([4]; male, control 2.6 ± 0.6, mean ± s.d.) | Total cholesterol, Male ([4]; male, control 14.3 ± 2, mean ± s.d.) | 8-iso-prostaglandin F2α, Male ([4]; male, oxidative stress, control 273 ± 19, mean ± s.d.)
O=[N+]([O-])O[C@@H]1CO[C@H]2[C@@H]1OC[C@@H]2S [(1), 2-thioisosorbide 5-mononitrate] | 30 ± 8% | 41 ± 6 µM | 110 ± 10 µM |  |  |  |  |  |  |  |  |  |  |  |  |  | 
CC(=O)S[C@H]1CO[C@H]2[C@@H]1OC[C@H]2O[N+](=O)[O-] [(12), 2-acetylthio-isosorbide-5-mononitrate] | 15 ± 2% | 23 ± 10 µM | 89 ± 10 µM | 52% | 22.6 ± 5.9 μV | 81% | 8.6 ± 2.8 μV | decrease | decrease | 0.48 ± 0.13 mmol/L | 1.3 ± 0.2 mmol/L | 11.3 ± 1.5 mmol/L | 99 ± 7 pg/mL | 0.47 ± 0.15 mmol/L | 1.5 ± 0.4 mmol/L | 18 ± 3 mmol/L | 101 ± 13 pg/mL
